Assay results: patent US20190046552A1, “COMPOSITIONS AND METHODS FOR THE TREATMENT OF HCV INFECTION” (priority 2015, published 2019)
Read-outs that look alike come from different tables or passages of the source.

Columns and labels:
[1] = Part B (MAD): plasma PK of Formula (IIa) and its metabolites after once-daily oral Formula (IIa) for 7 days, fasted; type: in vivo, human; details: fasted; for AUC(0-inf): Day 1, plasma
Procedure: Part B was a blinded, randomized, placebo-controlled MAD study consisting of four cohorts of eight subjects randomized 6:2 to receive Formula (IIa) or placebo. […] To control for the possible effect of the IL28b genotype, the number of subjects with CC alleles was capped at three per cohort.
The starting dose was determined by the SRC based on review of all safety and any available PK/PD data from Part A. All subjects were dosed in the fasted state with Formula (IIa) daily, from Day 1 until […]. All subjects had nothing by mouth other than water for at least 10 hours prior to daily dosing and for 4 hours thereafter. In Part B, all subjects were administered the study medication orally with approximately 240 mL of water at the same time every day (+/−10 minutes).
A subset of blood samples shown in Table 3 above was used for the PK evaluation of plasma trough concentrations (Table 4). In addition, blood sample assessment of antiviral response was collected according to the following sampling schedule for Part B (Table 4).
(§1) All plasma PK calculations were performed using actual time points calculated relative to the time of last drug administration.
(§2) PK analysis was conducted for all enrolled subjects that received any dose of Formula (IIa) with sufficient plasma sample data to assess PK parameters. […] Data analysis was performed using a validated version of WinNonlin® Enterprise (Version 5.2) software, and summary tables and figures were generated using a validated version of WinNonlin® Autopilot™ (Version 1.1.1) and other reporting tools, including SigmaPlot®.

[2] = Part A (SAD): plasma PK of Formula (IIa) and its metabolites after a single oral dose of Formula (IIa), fed or fasted; type: in vivo, human; details: for Cmax / AUC(0-t) / Tmax / AUC(0-inf) / half-life: human, in vivo; for Cmax / AUC(0-t) / Tmax: po
Procedure: The study was a Phase 1, two-part, first-in-human study of single (Part A) and multiple (Part B) ascending doses (SAD and MAD) of Formula (IIa) at doses of 100-900 mg given as a monotherapy for up to 7 days. Subjects were enrolled at multiple sites in Australia and New Zealand. For both Parts A and B, the Safety Review Committee (SRC) determined whether dose escalation occurred after review of all safety data and any available PK/PD data. Part A was an open label, randomized SAD study consisting of four cohorts of two subjects each, with one subject randomized to be dosed in the fed state and the other in the fasted state, at doses of 100 mg to 800 mg Formula (IIa). All subjects were given a single dose of Formula (IIa) orally.
as §1, §2

In the case of `CO[C@H]1C(OP(=O)(OC[C@H]2O[C@@H](n3cnc4c(N)ncnc43)CC2O)SCOC(=O)OC(C)C)[C@@H](CO)O[C@H]1n1ccc(=O)[nH]c1=O` (stereo partly drawn) [Formula (IIa)], the Cmax ([1]; human, in vivo, po, 900 mg, 900 mg Formula (IIa) QD oral, Day 7, plasma, arithmetic mean (CV %), read-out: Cmax) is reported as 6.66 ng/mL, the half-life ([1]; human, in vivo, po, 900 mg, 900 mg Formula (IIa) QD oral, Day 7, plasma, arithmetic mean (CV %), read-out: t1/2 (converted)) is reported as 1.07 h and the Tmax ([1]; human, in vivo, po, 900 mg, 900 mg Formula (IIa) QD oral, Day 7, plasma, median (min, max), read-out: Tmax) is reported as 1.25 h. The AUC(0-inf) ([1]; human, in vivo, 400 mg Formula (IIa) QD oral, arithmetic mean (CV %)) was 8.04 ng·h/mL, the AUC(0-inf) ([1]; human, in vivo, 900 mg Formula (IIa) QD oral, arithmetic mean (CV %)) was 7.25 ng·h/mL and the mean trough levels ([1]; multiple once daily oral Formula (IIa) QD for 7 days) was “BLQ”. It also gave a Cmax ([2]; 200 mg, single oral 200 mg Formula (IIa), fasted, plasma, N=1) of 0.577 ng/mL, an AUC(0-t) ([2]; 200 mg, single oral 200 mg Formula (IIa), fasted, plasma, N=1, read-out: AUC0-24) of 0.433 ng·h/mL and an AUC(0-t) ([2]; 200 mg, single oral 200 mg Formula (IIa), fasted, plasma, N=1, read-out: AUC0-t) of 0.289 ng·h/mL. The Tmax ([2]; 200 mg, single oral 200 mg Formula (IIa), fasted, plasma, N=1, read-out: Tmax) was 1 h, the Cmax ([2]; 200 mg, single oral 200 mg Formula (IIa), fed, plasma, N=1) was 0.261 ng/mL and the AUC(0-t) ([2]; 200 mg, single oral 200 mg Formula (IIa), fed, plasma, N=1, read-out: AUC0-24) was 0.131 ng·h/mL. For the same molecule, the AUC(0-t) ([2]; 200 mg, single oral 200 mg Formula (IIa), fed, plasma, N=1, read-out: AUC0-t) was 0.0653 ng·h/mL, the Tmax ([2]; 200 mg, single oral 200 mg Formula (IIa), fed, plasma, N=1, read-out: Tmax) was 2 h and the Cmax ([2]; 400 mg, single oral 400 mg Formula (IIa), fasted, plasma, N=1) was 1.16 ng/mL. For the same molecule, the AUC(0-t) ([2]; 400 mg, single oral 400 mg Formula (IIa), fasted, plasma, N=1, read-out: AUC0-24) was 1.37 ng·h/mL, the AUC(0-t) ([2]; 400 mg, single oral 400 mg Formula (IIa), fasted, plasma, N=1, read-out: AUC0-t) was 1.31 ng·h/mL and the Tmax ([2]; 400 mg, single oral 400 mg Formula (IIa), fasted, plasma, N=1, read-out: Tmax) was 2.5 h. It also gave a Cmax ([2]; 400 mg, single oral 400 mg Formula (IIa), fed, plasma, N=1) of 0.574 ng/mL, an AUC(0-t) ([2]; 400 mg, single oral 400 mg Formula (IIa), fed, plasma, N=1, read-out: AUC0-24) of 1.13 ng·h/mL and an AUC(0-t) ([2]; 400 mg, single oral 400 mg Formula (IIa), fed, plasma, N=1, read-out: AUC0-t) of 1.07 ng·h/mL. It also gave a Tmax ([2]; 400 mg, single oral 400 mg Formula (IIa), fed, plasma, N=1, read-out: Tmax) of 1.5 h, a Cmax ([2]; 800 mg, single oral 800 mg Formula (IIa), fasted, plasma, N=1) of 0.734 ng/mL and an AUC(0-t) ([2]; 800 mg, single oral 800 mg Formula (IIa), fasted, plasma, N=1, read-out: AUC0-24) of 0.809 ng·h/mL. The AUC(0-t) ([2]; 800 mg, single oral 800 mg Formula (IIa), fasted, plasma, N=1, read-out: AUC0-t) was 0.751 ng·h/mL, the Tmax ([2]; 800 mg, single oral 800 mg Formula (IIa), fasted, plasma, N=1, read-out: Tmax) was 1 h and the Cmax ([2]; 800 mg, single oral 800 mg Formula (IIa), fed, plasma, N=1) was 0.486 ng/mL. It also gave an AUC(0-t) ([2]; 800 mg, single oral 800 mg Formula (IIa), fed, plasma, N=1, read-out: AUC0-24) of 0.96 ng·h/mL, an AUC(0-t) ([2]; 800 mg, single oral 800 mg Formula (IIa), fed, plasma, N=1, read-out: AUC0-t) of 0.9 ng·h/mL and a Tmax ([2]; 800 mg, single oral 800 mg Formula (IIa), fed, plasma, N=1, read-out: Tmax) of 1.5 h. It also gave a Tmax ([2]; single oral Formula (IIa), subjects dosed under fasted conditions, read-out: Individual Tmax range) of 1 to 2.5 h, a Tmax ([2]; single oral Formula (IIa), subjects dosed under fed conditions, read-out: Individual Tmax range) of 1.5 to 2 h and an AUC(0-inf) ([2]; single oral 400 mg Formula (IIa), fed, plasma, N=1) of 1.43 ng·h/mL. It also gave a half-life ([2]; single oral 400 mg Formula (IIa), fed, plasma, N=1, read-out: t1/2 (converted)) of 1.16 h, an AUC(0-inf) ([2]; single oral 800 mg Formula (IIa), fed, plasma, N=1) of 1.39 ng·h/mL and a half-life ([2]; single oral 800 mg Formula (IIa), fed, plasma, N=1, read-out: t1/2 (converted)) of 1.42 h. For the same molecule, the half-life ([2]; two fed subjects (400 mg and 800 mg dose cohorts), read-out: half-life (terminal phase), range) was 1.16 to 1.42 h, the “measurable Formula (IIa) concentrations in plasma” value ([2]; single oral 100 mg Formula (IIa), fasting and fed) was “no measurable Formula (IIa) concentrations” and the “AUC0-t in the fasted subject higher than the fed subject” value ([2]; single oral 200 mg Formula (IIa)) was 4 fold. For the same molecule, the “peak plasma concentrations in the fasted subjects, times higher compared to the fed subjects” value ([2]; single oral 400 mg Formula (IIa)) was 2.0 times, the “peak plasma concentrations in the fasted subjects, times higher compared to the fed subjects” value ([2]; single oral 800 mg Formula (IIa)) was 1.5 times and the “measurable concentrations of Formula (IIa) in plasma” value ([2]; single oral dose levels of 100 mg and 200 mg) was “did not produce measurable concentrations”.
